Patent publication US9505729B2, “Isoxazole analogs as mediators of transcriptional induction of E-cadherin” (Vanderbilt University, priority 2014, dated 2016)

What follows are compounds tested on E-cadherin expression in SW620 cells (assay: In-cell Western (ICW) cell-based functional assay of E-cadherin expression in SW620 cells). Conditions: Homo sapiens, SW-620; change in expression level of E-cadherin in response to 10 μM compound, SW620 cells, 24 hours.
Procedure: SW620 and H520 cells (5×10^4/100 μL) were seeded in a 96-well plate prior to treatment. Cells were treated with 10 μM concentration of synthesized compound in quadruplicate for 24 hours in RPMI 1640 supplemented medium and 100 μg/mL penicillin-streptomycin. The cells were then fixed with 100% methanol for 20 minutes at 4° C. The wells were then washed 2 times with PBS, permeabilized in 2% bovine serum albumin (BSA) and 0.2% TritonX-100 in PBS for 30 minutes at room temperature with gentle agitation, and blocked in LI-COR blocking buffer for 30 minutes at room temperature with gentle agitation. The cells were then incubated with the following primary antibodies: anti-E-Cadherin (1:500) and anti-α-Tubulin (1:1000) diluted in blocking buffer (1:1 dilution in PBS) for 2 hours at room temperature with gentle agitation. The cells were washed 4 times in PBS-T for 5 minutes each, and then incubated with the following secondary antibodies conjugated to a fluorescent entity: IRDye 800-conjugated goat anti-rabbit IgG (1:1000) and IRDye-700-conjugated goat anti-mouse IgG (1:2000) in blocking buffer (1:1 dilution in PBS) with gentle agitation for 1 h at room temperature. The cells were washed 4 times in PBS-T for 5 minutes each followed by a single wash with PBS. All liquid was removed from the wells and the plates were visualized and analyzed on the Odyssey IR imaging system (LI-COR Biosciences).
The assay was further optimized in the following manner. The cells were washed 2 times with PBS, fixed in 100% methanol at room temperature for 15 minutes, and again washed 2 times with PBS. The cells were then incubated with the following primary antibodies: anti-E-Cadherin (1:200) and anti-α-Tubulin (1:2000) diluted in ice cold 2% bovine serum albumin (BSA) and 0.2% TritonX-100 in PBS for 1 hour at room temperature with gentle agitation. The cells were washed 2 times in PBS and then incubated with the following secondary antibodies conjugated to a fluorescent entity: Licor 800-conjugated goat anti-rabbit IgG (1:2000) and IRDye-700-conjugated goat anti-mouse IgG (1:2000) in ice cold 2% BSA and 0.2% TritonX-100 in PBS with gentle agitation for 45 minutes at room temperature. The wells were washed 2 times in PBS, dried, and analyzed as previously mentioned.
N-(3-(Arylamino)alkyl)-5-arylisoxazole-3-carboxamide analogs were synthesized as described above. Changes in expression level of E-cadherin in response to 10 μM compound in SW620 cells was determined in the cell-based functional assay as described above, and the data are shown in Table II. The compound number corresponds to the compound numbers used in Table I.
EC50 of inducement of E-cadherin expression in SW620 cells was determined in the cell-based functional assay as described above, and the data are shown in Table III. The compound number corresponds to the compound numbers used in Table I.
`COc1cncc(CN(CCCNC(=O)c2cc(-c3ccccc3)[nH]n2)Cc2cncc(OC)c2)c1` [Compound 29, N-(3-(bis((5-methoxypyridin-3-yl)methyl)amino)propyl)-5-phenyl-1H-pyrazole-3-carboxamide] was tested, and the fold induction at 10 µM was 2.09.
Work on `COc1cncc(CNCCCNC(=O)c2cc(-c3ccccc3)on2)c1` [Compound 9, N-(3-(((5-methoxypyridin-3-yl)methyl)amino)propyl)-5-phenylisoxazole-3-carboxamide] yielded a fold induction at 10 µM of 0.89.
In the case of `O=C(NCCCNCc1ccc(O)cc1O)c1cc(-c2ccccc2)on1` [Compound 12, N-(3-((2,4-dihydroxybenzyl)amino)propyl)-5-phenylisoxazole-3-carboxamide], the fold induction at 10 µM is reported as 0.91.
For `O=C(NCCCNCc1ccccn1)c1cc(-c2ccccc2)[nH]n1` [Compound 23, 5-phenyl-N-(3-((pyridin-2-ylmethyl)amino)propyl)-1H-pyrazole-3-carboxamide], the fold induction at 10 µM was 1.44.
In the case of `O=C(NCCCNCc1cccnc1)c1cc(-c2ccccc2)on1` [Compound 3, 5-phenyl-N-(3-((pyridin-3-ylmethyl)amino)propyl)isoxazole-3-carboxamide], the fold induction at 10 µM is reported as 0.7.
With `O=C(NCCCNCc1cccnc1)c1cc(-c2ccccc2)[nH]n1` [Compound 22, 5-phenyl-N-(3-((pyridin-3-ylmethyl)amino)propyl)-1H-pyrazole-3-carboxamide] the fold induction at 10 µM was 1.16.
`O=C(NCCCN(Cc1cnoc1)Cc1cnoc1)c1cc(-c2ccccc2)on1` [Compound 15, N-(3-(bis(isoxazol-4-ylmethyl)amino)propyl)-5-phenylisoxazole-3-carboxamide] showed a fold induction at 10 µM of 0.95.
`O=C(NCCCN(Cc1cnoc1)Cc1cnoc1)c1cc(-c2ccccc2)[nH]n1` [Compound 36, N-(3-(bis(isoxazol-4-ylmethyl)amino)propyl)-5-phenyl-1H-pyrazole-3-carboxamide] showed a fold induction at 10 µM of 5.77.
With `Cc1ncc(CN(CCCNC(=O)c2cc(-c3ccccc3)on2)Cc2cnc(C)o2)o1` [Compound 7, N-(3-(bis((2-methyloxazol-5-yl)methyl)amino)propyl)-5-phenylisoxazole-3-carboxamide] the fold induction at 10 µM was 0.83.
`CC(=O)n1cc(CNCCCNC(=O)c2cc(-c3ccccc3)on2)c2ccccc21` [Compound 13, N-(3-(((1-acetyl-1H-indol-3-yl)methyl)amino)propyl)-5-phenylisoxazole-3-carboxamide] gave a fold induction at 10 µM of 0.91.
For `O=C(NCCCNCc1c[nH]c2ncccc12)c1cc(-c2ccccc2)on1` [Compound 10, N-(3-(((1H-pyrrolo[2,3-b]pyridin-3-yl)methyl)amino)propyl)-5-phenylisoxazole-3-carboxamide], the fold induction at 10 µM was 0.91.
`Cc1ncc(CNCCCNC(=O)c2cc(-c3ccccc3)on2)o1` [Compound 4, N-(3-(((2-methyloxazol-5-yl)methyl)amino)propyl)-5-phenylisoxazole-3-carboxamide] showed a fold induction at 10 µM of 0.71.
Compound `O=C(NCCCNCc1c[nH]c2ncccc12)c1cc(-c2ccccc2)[nH]n1` [Compound 30, N-(3-(((1H-pyrrolo[2,3-b]pyridin-3-yl)methyl)amino)propyl)-5-phenyl-1H-pyrazole-3-carboxamide] has a fold induction at 10 µM of 2.33.
In the case of `Cc1ncc(CN(CCCNC(=O)c2cc(-c3ccccc3)[nH]n2)Cc2cnc(C)o2)o1` [Compound 25, N-(3-(bis((2-methyloxazol-5-yl)methyl)amino)propyl)-5-phenyl-1H-pyrazole-3-carboxamide], the fold induction at 10 µM is reported as 1.54.
`O=C(NCCCNCc1ccc(O)c(O)c1)c1cc(-c2ccccc2)on1` [Compound 8, N-(3-((3,4-dihydroxybenzyl)amino)propyl)-5-phenylisoxazole-3-carboxamide] was tested, and the fold induction at 10 µM was 0.84.
`O=C(NCCCN(Cc1ccc(O)c(O)c1)Cc1ccc(O)c(O)c1)c1cc(-c2ccccc2)[nH]n1` [Compound 27, N-(3-(bis(3,4-dihydroxybenzyl)amino)propyl)-5-phenyl-1H-pyrazole-3-carboxamide] showed a fold induction at 10 µM of 1.67.
For `O=C(NCCCNCc1ccccc1O)c1cc(-c2ccccc2)on1` [Compound 16, N-(3-((2-hydroxybenzyl)amino)propyl)-5-phenylisoxazole-3-carboxamide], the fold induction at 10 µM was 0.98.
Work on `O=C(NCCCNCc1c[nH]c2ccccc12)c1cc(-c2ccccc2)on1` [Compound 2, N-(3-(((1H-indol-3-yl)methyl)amino)propyl)-5-phenylisoxazole-3-carboxamide] yielded a fold induction at 10 µM of 0.68.
Work on `O=C(NCCCNCc1ccc(O)cc1O)c1cc(-c2ccccc2)[nH]n1` [Compound 33, N-(3-((2,4-dihydroxybenzyl)amino)propyl)-5-phenyl-1H-pyrazole-3-carboxamide] yielded a fold induction at 10 µM of 3.4.
Compound `[N-]=[N+]=Nc1ccnc(NCCCNC(=O)c2cc(-c3ccccc3)[nH]n2)n1` [Compound 39, N-(3-((4-azidopyrimidin-2-yl)amino)propyl)-5-phenyl-1H-pyrazole-3-carboxamide] has a fold induction at 10 µM of 15.9.
`CC(=O)n1cc(CNCCCNC(=O)c2cc(-c3ccccc3)[nH]n2)c2ccccc21` [Compound 34, N-(3-(((1-acetyl-1H-indol-3-yl)methyl)amino)propyl)-5-phenyl-1H-pyrazole-3-carboxamide] gave a fold induction at 10 µM of 3.58.
Compound `O=C(NCCCNCc1ccccn1)c1cc(-c2ccccc2)on1` [Compound 5, 5-phenyl-N-(3-((pyridin-2-ylmethyl)amino)propyl)isoxazole-3-carboxamide] has a fold induction at 10 µM of 0.71.
`Cc1ncc(CNCCCNC(=O)c2cc(-c3ccccc3)[nH]n2)o1` [Compound 24, N-(3-(((2-methyloxazol-5-yl)methyl)amino)propyl)-5-phenyl-1H-pyrazole-3-carboxamide] gave a fold induction at 10 µM of 1.5.
Work on `[N-]=[N+]=Nc1nccc(NCCCNC(=O)c2cc(-c3ccccc3)on2)n1` [Compound 17, N-(3-((2-azidopyrimidin-4-yl)amino)propyl)-5-phenylisoxazole-3-carboxamide] yielded a fold induction at 10 µM of 1.07.
Compound `Cc1cc(CNCCCNC(=O)c2cc(-c3ccccc3)on2)on1` [Compound 11, N-(3-(((3-methylisoxazol-5-yl)methyl)amino)propyl)-5-phenylisoxazole-3-carboxamide] has a fold induction at 10 µM of 0.9.
`O=C(NCCCNCc1cnoc1)c1cc(-c2ccccc2)on1` [Compound 14, N-(3-((isoxazol-4-ylmethyl)amino)propyl)-5-phenylisoxazole-3-carboxamide] was tested, and the fold induction at 10 µM was 0.94.
With `N#Cc1ccc(NCCCNC(=O)c2cc(-c3ccccc3)on2)nc1` [Compound 1, N-(3-((5-cyanopyridin-2-yl)amino)propyl)-5-phenylisoxazole-3-carboxamide] the fold induction at 10 µM was 0.63.
In the case of `O=C(NCCCN(Cc1ccccn1)Cc1ccccn1)c1cc(-c2ccccc2)on1` [Compound 6, N-(3-(bis(pyridin-2-ylmethyl)amino)propyl)-5-phenylisoxazole-3-carboxamide], the fold induction at 10 µM is reported as 0.82.
`COc1cncc(CNCCCNC(=O)c2cc(-c3ccccc3)[nH]n2)c1` [Compound 28, N-(3-(((5-methoxypyridin-3-yl)methyl)amino)propyl)-5-phenyl-1H-pyrazole-3-carboxamide] gave a fold induction at 10 µM of 1.8.
`[N-]=[N+]=Nc1nccc(NCCCNC(=O)c2cc(-c3ccccc3)[nH]n2)n1` [Compound 37, N-(3-((2-azidopyrimidin-4-yl)amino)propyl)-5-phenyl-1H-pyrazole-3-carboxamide] showed a fold induction at 10 µM of 6.09.
`Cc1cc(CNCCCNC(=O)c2cc(-c3ccccc3)[nH]n2)on1` [Compound 31, N-(3-(((3-methylisoxazol-5-yl)methyl)amino)propyl)-5-phenyl-1H-pyrazole-3-carboxamide] was tested, and the fold induction at 10 µM was 2.52.
With `O=C(NCCCNc1nccc(Cl)n1)c1cc(-c2ccccc2)[nH]n1` [Compound 38, N-(3-((4-chloropyrimidin-2-yl)amino)propyl)-5-phenyl-1H-pyrazole-3-carboxamide] the fold induction at 10 µM was 7.36.
`Cc1cc(CN(CCCNC(=O)c2cc(-c3ccccc3)[nH]n2)Cc2cc(C)no2)on1` [Compound 32, N-(3-(bis((3-methylisoxazol-5-yl)methyl)amino)propyl)-5-phenyl-1H-pyrazole-3-carboxamide] was tested, and the fold induction at 10 µM was 3.06.

Same assay, conditions: Homo sapiens, SW-620; inducement of E-cadherin expression in SW620 cells
Compound `O=C(NCCCN(Cc1cnoc1)Cc1cnoc1)c1cc(-c2ccccc2)[nH]n1` [Compound 36, N-(3-(bis(isoxazol-4-ylmethyl)amino)propyl)-5-phenyl-1H-pyrazole-3-carboxamide] has an EC50 of 12 µM.
With `[N-]=[N+]=Nc1ccnc(NCCCNC(=O)c2cc(-c3ccccc3)[nH]n2)n1` [Compound 39, N-(3-((4-azidopyrimidin-2-yl)amino)propyl)-5-phenyl-1H-pyrazole-3-carboxamide] the EC50 was 5.32 µM.
For `[N-]=[N+]=Nc1nccc(NCCCNC(=O)c2cc(-c3ccccc3)[nH]n2)n1` [Compound 37, N-(3-((2-azidopyrimidin-4-yl)amino)propyl)-5-phenyl-1H-pyrazole-3-carboxamide], the EC50 was 15 µM.
`O=C(NCCCNc1nccc(Cl)n1)c1cc(-c2ccccc2)[nH]n1` [Compound 38, N-(3-((4-chloropyrimidin-2-yl)amino)propyl)-5-phenyl-1H-pyrazole-3-carboxamide] was tested, and the EC50 was 22.9 µM.
